Test results published in paper PMC5161367, “Discovery of Novel Small Molecule Inhibitors of VEGF Expression in Tumor Cells Using a Cell-Based High Throughput Screening Platform” (PLoS ONE, 2016).
Like-named read-outs stand apart in the source and are kept apart here.

How the values were obtained:
[1] = tested on: VEGF; test: VEGF ELISA, hypoxia-induced VEGF production in HeLa cells; type: cell-based; details: Homo sapiens; for IC50: HeLa cells under hypoxia, read-out: IC50, inhibition of hypoxia induced VEGF production (VEGF ELISA)
Experimental: Cells were treated with vehicle control (0.5% DMSO) or compounds at the indicated concentration for 48 hours, and specific proteins in conditioned medium were quantified using commercially available ELISA kits (R&D Systems) according to the manufacturer’s recommendations. VEGF was quantified in HeLa cells under hypoxia (1% oxygen); Tumor necrosis factor alpha (TNFα) was quantified in CEM cells stimulated with 1 μg/mL interleukin-1 beta (Sigma); erythropoietin (EPO) was quantified in HepB3 cells under hypoxic conditions (1% oxygen); and granulocyte colony-stimulating factor (G-CSF), basic fibroblast growth factor (FGF-2) and insulin-like growth factor 1 (IGF-1) were quantified without induction in HT1080 cells, HeLa cells and HepG2 cells, respectively.
A sigmoid dose-response with variable slope regression curve was generated for each compound. The maximal and minimal inhibition values were set at 100% and 0%, respectively. IC50 and CC50 values were automatically calculated after curve fitting by the software.
Hits from the HTS were then evaluated for their ability to modulate hypoxia-inducible endogenous VEGF expression. HeLa cells were cultured under hypoxic conditions (1% O2, 5% CO2, balanced with nitrogen) in the presence or absence of compound at a concentration of 7.5 μM in duplicate. VEGF protein levels in the conditioned medium were quantified by ELISA. […] Compounds that reduced endogenous hypoxia-induced VEGF by 50% or more at a single concentration of 7.5 μM were further evaluated.
The IC50 values for compounds that inhibited VEGF production were determined next. A seven-point dose-response analysis was performed for each of the 137 compounds. In parallel, a dose-response cytotoxicity assay was performed to determine the CC50 (the concentration resulting in 50% cellular growth inhibition or cytotoxicity) under the same conditions as VEGF ELISA to determine whether hypoxia-induced VEGF inhibition was due to cytotoxicity.

[2] = tested on: membrane bound VEGF (VEGF189 and VEGF206); test: Western blot of membrane bound VEGF isoforms; type: cell-based, human
Experimental: Cells were treated with test compounds for the indicated times as shown in the Results section. Whole-cell extracts were obtained by lysing cells in M-PER lysis buffer (Pierce, Rockford, IL) containing 150 mM NaCl, 2 mM EDTA and 1x Halt protease inhibitors (Pierce). Samples were resolved on a Tris-glycine Criterion gel (Bio-Rad) and transferred onto a 0.45 μm nitrocellulose membrane. The membranes were then immunoblotted with specific antibodies as shown in the Results section: antibody (C1) specific for VEGF was purchased from Santa Cruz Biotechnologies (used at 1:200 dilution); and antibody specific for human β-actin was purchased from Abcam (Cambridge, MA) (1:10000 dilution). Immunodetection was done using the corresponding secondary antibodies conjugated with infrared dyes or horseradish peroxidase. The expression levels of proteins were quantified with Odyssey (LI-COR) or using enhanced chemiluminescence (Pierce).
The effect of PTC-858 on the levels of the soluble and membrane bound VEGF isoforms was characterized. The levels of the soluble VEGF isoforms (VEGF121 and VEGF165) were assessed from conditioned medium as described above. The effect of PTC-858 on the production of the high molecular weight, membrane bound isoforms (VEGF189 and VEGF206), was determined by Western blot analysis using a VEGF specific antibody. β-actin levels were used as an internal loading control. […]

[3] = tested on: hVEGF; test: HT1080 xenograft pharmacodynamic model, intratumor hVEGF; type: in vivo, mouse (human tumor xenograft); details: twice per day for 7 days
Experimental: (§1) Log phase growing tumor cells (5–10 x 10^6 cells/mouse, depending on the cell line) were implanted subcutaneously in athymic nude mice. When the average tumor size reached the indicated size, mice were randomly divided into groups and administered vehicle (5% DMSO/ 95% PEG-300) or test compounds by oral gavage. Tumor volumes were measured twice per week using digital calipers and body weights once per week. Tumor volume was determined according to the formula: L x (W)^2/2, where L is the longest dimension and W is the shortest dimension.
At the end of experiments, the tumors were excised from mice and homogenized on ice using a Powergen homogenizer fitted with Omni-Tip disposable/reusable probes (both from Fisher Scientific) in Tris-HCl buffer containing a cocktail of proteinase inhibitors. Intra-tumor human VEGF levels, as well as levels of other growth factors or proteins, were subsequently measured using commercially available ELISA kits (R&D Systems). Protein concentrations of the homogenates were determined using the Bradford protein assay (Bio-Rad) and intratumor growth factor levels were normalized to the total protein concentration.
(§2) Among the VEGF UTR-selective compounds identified, PTC-858 is a potent hit with adequate pharmaceutical properties (data not shown). These pharmaceutical properties enabled the testing of this compound in a human xenograft pharmacodynamic model in mice to measure modulation of intratumor VEGF levels. Established human HT1080 fibrosarcoma tumors grown as a xenograft in nude mice were treated with PTC-858 orally at a dose of 200 mg/kg, twice per day for 7 days. […] In addition, tumor growth was reduced by 25% after only 7 days of treatment.

[4] = tested on: HT1080 human tumor xenografts; test: HT1080 human tumor xenograft growth in athymic nude mice; type: in vivo, mouse
Experimental: as §1
as §2, with “These” for “Among the VEGF UTR-selective compounds identified, PTC-858 is a potent hit with adequate pharmaceutical properties (data not shown). These”
Tumors in vehicle-treated mice reached an average volume of 1 cm^3 after 15 days, while tumors in mice treated with 10 mg/kg PTC-510 reached the same volume in about 40 days, a tumor growth delay of 25 days.

| Compound | IC50 [1] | EC50 ([1]; HeLa cells, read-out: HeLa VEGF ELISA/SAR EC50) | EC90 ([1]; HeLa cells, read-out: HeLa VEGF ELISA/SAR EC90) | effect on production of membrane bound VEGF189/206 (Western blot) ([2]; Fig 4c) | effect on intratumor VEGF in HT1080 tumors ([3]; 50 mg/kg, oral) | time for tumors to reach an average volume of 1 cm^3 ([4]; 10 mg/kg, oral, vehicle 15 days) | tumor growth delay ([4]; 10 mg/kg, oral, vs vehicle) | mice with tumors that remained too small to measure (<50 mm^3) ([4]; 50 mg/kg group, 3/7 mice, on study more than 90 days) | time for tumors to reach 1 cm^3 ([4]; 50 mg/kg, oral, dosing stopped at 50 days) | effect of prolonged treatment on tumor growth ([4]; oral, 10 and 50 mg/kg) | EC50 ([1]; HeLa cells under hypoxia (1% oxygen), 48 hours, read-out: ELISA EC50, VEGF) | effect on level of membrane bound VEGF (Western blot) ([2]; HeLa cells (text b57), β-actin loading control) | change of intratumor human VEGF protein levels vs vehicle ([3]; HT1080 xenograft, 200 mg/kg orally) | intratumor hVEGF ([3]; HT1080 xenograft, 200 mg/kg, oral, mean +/- SD, n = 10) | tumor growth reduced ([4]; 200 mg/kg orally, twice per day, after 7 days of treatment) |
| --- | --- | --- | --- | --- | --- | --- | --- | --- | --- | --- | --- | --- | --- | --- | --- |
| COc1ccc(C2c3[nH]c4ccc(Br)cc4c3CC3C(=O)N(C4CCCCC4)C(=S)N32)cc1.O=C(O)C(F)(F)F (stereo not shown) [PTC-510, 9-bromo-2-cyclohexyl-5-(4-methoxyphenyl)-3-thioxo-2,3,5,6,11,11a-hexahydro-1H-imidazo[1’,5’:1,6]pyrido[3,4-b]indol-1-one trifluoroacetate] | ~6 nM | 6 nM | 50 nM | inhibits the production of the membrane bound VEGF189/206 | selectively inhibited production of intratumor VEGF | about 40 days | 25 days | 43% | > 50 days | reduced tumor growth significantly in a dose-dependent fashion | – | – | – | – | – |
| Brc1ccc2[nH]c3c(c2c1)CCCC3n1cccc1 (stereo not shown) [PTC-858, 6-bromo-1-(1H-pyrrol-1-yl)-2,3,4,9-tetrahydro-1H-carbazole] | 7.5 nM | – | – | – | – | – | – | – | – | – | 13 ± 20 nM | reduced the level of membrane bound VEGF in HeLa cells in a dose-dependent fashion | significant reduction of intratumor human VEGF protein levels | 127.5 ± 108.6 pg/mg total tumor proteins | 25% |
